The values below come from PMC11579541, “In vitro, in vivo, and in silico approaches for evaluating the preclinical DMPK profiles of ammoxetine, a novel chiral serotonin and norepinephrine reuptake inhibitor” (Frontiers in Pharmacology, 2024).

Data set [1] can be described thus: PPB assay by ultrafiltration, dog plasma. In kind it is in vitro ADME, beagle dogs. The note with it: beagle. The protocol:
The PPB of ammoxetine was determined using the ultrafiltration method. Triplicate samples of rat, dog, or human plasma were spiked with ammoxetine at three final concentrations (50, 150, and 450 ng/mL). The spiked plasma samples were then incubated in a 37°C air-bath shaker for 1 h until equilibrium was reached. After incubation, 400 μL of the plasma samples were transferred to pre-saturated ultrafiltration devices. These devices were subsequently centrifuged at 13,800×g and 20°C for 20 min to separate the unbound ammoxetine. 100 μL of the test samples were taken and mixed with 100 μL of the IS, L-phencynonate (50 ng/mL), and 300 μL of methanol. Following centrifugation at 13,800×g for 10 min, the supernatants were used to determine the total and free concentrations of ammoxetine in the plasma (C t , C f ) using an LC-MS-MS method. The PPB rate (%) of ammoxetine was calculated by dividing (C t −C f ) by C t .

In data set [2] the target is T1, CYP 2C8 (Homo sapiens, UniProt P10632).
T1 construct: 0.5 mg/mL HLM, 1 mmol/L NADPH, and a cocktail of 10 probe substrates for 9 CYP isoforms; tissue BD (Woburn, USA); host or cells: pooled human liver microsomes
T1 sequence (P10632 1-490): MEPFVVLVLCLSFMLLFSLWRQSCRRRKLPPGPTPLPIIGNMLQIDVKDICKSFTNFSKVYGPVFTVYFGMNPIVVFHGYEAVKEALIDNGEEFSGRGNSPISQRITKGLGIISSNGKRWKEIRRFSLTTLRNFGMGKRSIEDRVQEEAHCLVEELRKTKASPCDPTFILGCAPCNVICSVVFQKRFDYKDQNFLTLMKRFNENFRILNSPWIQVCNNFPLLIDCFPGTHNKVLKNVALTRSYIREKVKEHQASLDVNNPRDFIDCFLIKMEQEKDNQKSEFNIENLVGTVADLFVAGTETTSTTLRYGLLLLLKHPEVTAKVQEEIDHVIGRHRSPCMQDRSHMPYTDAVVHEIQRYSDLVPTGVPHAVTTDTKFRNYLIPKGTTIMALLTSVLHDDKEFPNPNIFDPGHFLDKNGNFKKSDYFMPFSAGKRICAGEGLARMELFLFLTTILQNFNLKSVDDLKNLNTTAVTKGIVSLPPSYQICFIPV
Description: CYP inhibition, cocktail-substrate method in HLM. The note with it: probe amodiaquine. In kind it is in vitro ADME. The protocol: (§1) To assess the CYP inhibition profiling of ammoxetine, a high-throughput assay based on the cocktail-substrate method was performed, as described in the literature ([Kim et al., 2005]; [Kozakai et al., 2014]). Microsomal incubations were conducted in triplicate for 30 min at 37°C in a reaction system (200 μL) consisting of […] potassium phosphate buffer (pH 7.4), 0.5 mg/mL HLM, 1 mmol/L NADPH, and a cocktail of 10 probe substrates for 9 CYP isoforms. The final concentration of each CYP-specific substrate was chosen to be close to the Michaelis-Menten constant (K m ) value of the respective substrate ([Kim et al., 2005]; [Lee et al., 2024]). For instance, phenacetin (CYP 1A2) was used at a concentration of 50 μmol/L, coumarin (CYP 2A6) at 5 μmol/L, bupropion (CYP 2B6) at 50 μmol/L, amodiaquine (CYP 2C8) at 5 μmol/L, tolbutamide (CYP 2C9) at 100 μmol/L, S-mephenytoin (CYP 2C19) at 100 μmol/L, dextromethorphan (CYP 2D6) at 5 μmol/L, chlorzoxazone (CYP 2E1) at 50 μmol/L, and testosterone and midazolam (CYP 3A4) at 50 μmol/L. Ammoxetine was evaluated at five concentrations: 0.1, 1, 10, 50, and 100 μmol/L. Additionally, a blank control without ammoxetine was included. The incubation was terminated by adding an equal volume of ice-cold acetonitrile/methanol (1:1, v/v) along with the IS, dexmedetomidine (1 ng/mL). After a 20-fold dilution, the mixture was centrifuged at 13,800×g for 10 min at 4°C. The supernatants were used to measure the levels of metabolites from the respective probe substrates using an LC-MS-MS method. The half-maximal inhibitory concentration (IC50) values were subsequently calculated.

Data set [3] has as its target T2, CYP 2A6 (Homo sapiens, UniProt P11509).
T2 construct: 0.5 mg/mL HLM, 1 mmol/L NADPH, and a cocktail of 10 probe substrates for 9 CYP isoforms; tissue BD (Woburn, USA); host or cells: pooled human liver microsomes
T2 sequence (P11509 1-494): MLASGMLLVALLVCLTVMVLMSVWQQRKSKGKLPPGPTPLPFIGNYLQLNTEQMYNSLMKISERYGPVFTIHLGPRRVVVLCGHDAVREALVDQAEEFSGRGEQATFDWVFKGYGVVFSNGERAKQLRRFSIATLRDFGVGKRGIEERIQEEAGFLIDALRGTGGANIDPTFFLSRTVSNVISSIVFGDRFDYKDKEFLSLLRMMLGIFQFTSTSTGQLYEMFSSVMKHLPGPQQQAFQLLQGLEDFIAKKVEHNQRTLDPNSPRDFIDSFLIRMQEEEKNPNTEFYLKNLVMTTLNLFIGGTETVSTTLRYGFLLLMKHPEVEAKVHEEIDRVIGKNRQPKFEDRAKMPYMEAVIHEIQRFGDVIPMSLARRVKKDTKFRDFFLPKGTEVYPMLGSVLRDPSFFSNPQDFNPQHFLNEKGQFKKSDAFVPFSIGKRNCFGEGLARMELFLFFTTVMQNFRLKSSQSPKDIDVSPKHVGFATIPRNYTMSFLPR
Kind of data set: CYP inhibition, cocktail-substrate method in HLM. The note with it: probe coumarin. In kind it is in vitro ADME. The protocol:
as §1

Data set [4] addresses T3, CYP 2E1 (Homo sapiens, UniProt P05181).
T3 construct: 0.5 mg/mL HLM, 1 mmol/L NADPH, and a cocktail of 10 probe substrates for 9 CYP isoforms; tissue BD (Woburn, USA); host or cells: pooled human liver microsomes
Description: CYP inhibition, cocktail-substrate method in HLM. In kind it is in vitro ADME. The note with it: probe chlorzoxazone. The protocol: as §1

Data set [5] addresses CYP 3A4 (Homo sapiens, UniProt P08684). Kind of data set: Phenotyping with recombinant human CYP 3A4. The note with it: 5 μmol/L, 25 pmol/mL CYP, 1 h. In kind it is in vitro ADME. Set-up: purchased BD (Woburn, USA). The protocol: Ammoxetine (final concentration 5 μmol/L) was incubated with recombinant human CYP 3A4, CYP 1A2, CYP 2C9, CYP 2C19, and CYP 2D6 (final concentration 25 pmol/mL) in a 5 mmol/L K2HPO4 buffer at pH 7.4. The incubations were performed in quintuplicate. NADPH (final concentration 1 mmol/L) was added to initiate the incubation process. The mixture was then incubated at 37°C for 1 h. To stop the reaction, 200 μL of ice-cold acetonitrile/methanol (1:1, v/v) containing 500 ng/mL of L-phencynonate (IS) was added. The samples were vortexed for 2 min and centrifuged at 13,800×g and 4°C for 10 min. The supernatants obtained were analyzed using an LC-MS-MS method. To establish appropriate controls, zero-time controls and blank controls in the absence of NADPH were set up in parallel.

SMILES strings stand for the structures. “And” between values parts separate entries of the source, which are not always exact repeats. Equal values may be shown once.

Chain of CYP 3A4 (P08684 whole entry): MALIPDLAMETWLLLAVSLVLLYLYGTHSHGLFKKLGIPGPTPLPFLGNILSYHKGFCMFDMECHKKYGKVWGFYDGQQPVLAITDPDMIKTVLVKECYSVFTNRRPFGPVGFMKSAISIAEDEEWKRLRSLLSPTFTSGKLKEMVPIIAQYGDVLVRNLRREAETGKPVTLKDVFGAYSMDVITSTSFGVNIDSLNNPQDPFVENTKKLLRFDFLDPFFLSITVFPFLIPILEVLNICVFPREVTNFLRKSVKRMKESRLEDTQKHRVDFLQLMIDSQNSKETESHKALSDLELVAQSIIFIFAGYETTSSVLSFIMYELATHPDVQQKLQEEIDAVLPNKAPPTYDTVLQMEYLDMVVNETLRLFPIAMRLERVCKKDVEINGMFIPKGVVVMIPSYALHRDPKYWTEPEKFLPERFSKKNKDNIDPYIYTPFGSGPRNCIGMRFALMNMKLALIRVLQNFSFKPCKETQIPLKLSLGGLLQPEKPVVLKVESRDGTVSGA
T3 sequence (P05181 whole entry, canonical isoform): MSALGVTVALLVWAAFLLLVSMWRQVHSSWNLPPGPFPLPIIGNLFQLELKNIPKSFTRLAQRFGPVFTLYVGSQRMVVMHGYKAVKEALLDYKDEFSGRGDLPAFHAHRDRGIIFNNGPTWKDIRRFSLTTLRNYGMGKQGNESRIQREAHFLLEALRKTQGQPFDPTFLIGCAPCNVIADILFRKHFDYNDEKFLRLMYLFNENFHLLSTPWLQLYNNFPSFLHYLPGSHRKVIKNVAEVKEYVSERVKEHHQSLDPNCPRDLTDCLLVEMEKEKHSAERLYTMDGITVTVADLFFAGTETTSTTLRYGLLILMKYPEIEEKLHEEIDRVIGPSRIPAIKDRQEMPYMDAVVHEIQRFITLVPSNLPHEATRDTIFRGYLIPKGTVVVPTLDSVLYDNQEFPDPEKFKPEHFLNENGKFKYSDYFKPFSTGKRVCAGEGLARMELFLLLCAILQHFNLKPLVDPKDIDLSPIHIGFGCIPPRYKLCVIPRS

Take `CNCC[C@H](Oc1cccc2c1OCO2)c1cccs1` [ammoxetine]: the fraction unbound at 1 h, 50 ng/mL in data set [1] (50 ng/mL, read-out: Percentage of ammoxetine-protein binding rate (%) (converted)) is 0.464. The fraction unbound at 1 h, 150 ng/mL in data set [1] (150 ng/mL, read-out: Percentage of ammoxetine-protein binding rate (%) (converted)) was 0.468. Also, the fraction unbound at 1 h, 450 ng/mL in data set [1] (450 ng/mL, read-out: Percentage of ammoxetine-protein binding rate (%) (converted)) was 0.423. Moreover, the fraction unbound at 1 h in data set [1] (approximate range over 50-450 ng/mL, read-out: PPB rate) was in the range of 0.4 to 0.5. The IC50 in data set [2], in data set [3] and in data set [4] was > 100 µM throughout. For the same molecule, the Transformation ratio% in data set [5] is 24.49±3.65% and 24.49%. Also, the “residuary concentration of ammoxetine, Mean±SD” value in data set [5] is 5.18±0.25.

In general, IC50 refers to the point on the concentration scale where inhibition reaches its midpoint.
